Key:
T47D cells = assay: Cell proliferation/viability assay; format: cell-based, human
MDA-MB-231 cells = assay: Cell proliferation/viability assay; format: cell-based, human
[1] = system: retinoic acid receptors (RARs); conditions: cytotoxic activity attributed to it; cited from earlier work

In the case of `CC1=C(CC/C(C)=C/CC/C(C)=C/C[C@@H](O)C2=CC(=O)OC2)C(C)(C)C(=O)CC1` [Compound 1, thorectidaeolide A], the “effect on cell viability (in words)” value (T47D cells) is reported as “Neither 1, nor 2, or any of the other less active sesterterpenes suppressed” and the “effect on cell viability (in words)” value (MDA-MB-231 cells) is reported as “Neither 1, nor 2, or any of the other less active sesterterpenes suppressed”.

For `CC(=O)O[C@H](C/C=C(\C)CC/C=C(\C)CCC1=C(C)CCC(=O)C1(C)C)C1=CC(=O)OC1` [Compound 2, 4-acetoxythorectidaeolide A], the “effect on cell viability (in words)” value (T47D cells) was “Neither 1, nor 2, or any of the other less active sesterterpenes suppressed” and the “effect on cell viability (in words)” value (MDA-MB-231 cells) was “Neither 1, nor 2, or any of the other less active sesterterpenes suppressed”.

In the case of `CC1=C(CC/C(C)=C/CC/C(C)=C/CCC2=CC(=O)OC2O)C(C)(C)CCC1` (stereo not shown) [Compound 11, luffariellolide], the “effect on cell viability (in words)” value (T47D cells) is listed as “significant level of cytotoxicity”, the “effect on cell viability (in words)” value (MDA-MB-231 cells) is listed as “significant level of cytotoxicity” and the “action on retinoic acid receptors (in words)” value [1] is listed as “agonist of retinoic acid receptors”.

Reference: paper PMC3809078 (Journal of natural products, 2013)
